# Like-named read-outs stand apart in the source and are kept apart here. No end group written: not given here.
# Legend:
# [1] = test system: Listeria monocytogenes ATCC 11994; assay: MIC, microbroth dilution; conditions: planktonic, 18 hours
# Protocol: (§1) Bacteria were grown in a shaking incubator at 37° C. and 160rpm in 50 ml BHI , using individual colonies retrieved from a fresh overnight TSA-sheep blood plate. The cultures were grown to a density of approximately 1×10^8cells/ml and then diluted to 5×10^5 cells/ml in CAMHB (Mc Farland 0.5). Each well contained 100p.I (50p.I of peptide containing MHB plus 50 μl inoculum). The final cell density was 1×10^5 to 5×10^5/ml. After addition of the cell suspension, plates were incubated at 37° C. for 18 to 24 hours. The optical density at 590 nm (OD590) of each well was measured after 5 seconds of shaking the plate using Perkin Elmer spectrophotometer (1420 Multilabel Counter Vicotr 3). […] Each well, where no growth was observed, was also plated on TSA-sheep blood agar plates, incubated at 37° C. overnight and visually inspected.
# [2] = test system: S. epidermidis strain ATCC 12228 and S. aureus ATCC; assay type: cell-based, Staphylococcus
# Protocol: Time-kill curves were obtained to study the kinetics of bactericidal activity. Compounds C30, Hit50 and C29 (for sequences see above) were tested against S. epidermidis strain ATCC 12228 and S. aureus ATCC at the compound's MIC and two times MIC value. It was shown that compound C30 decreased the viable counts by 100% within 5 min, while Hit50 reduced the viable counts by ^˜3 log units after the same incubation period, both at a concentration that equaled its MIC value (see FIG. 11A and FIG. 11B). […] For example the time needed to decrease the number of CFU/ml one-fold for C29 was 60 minutes (at the minimum inhibitory concentration), and only 10 minutes for 2×MIC.
# [3] = test system: human embryonic kidney cells (HEK293T cell line); conditions: concentrations lower than 100 μg/ml; HEK293T
# Source text: Alamar blue assay allowed monitoring of the total percentage of cell growth recovery in time in the presence of peptides.
# Nocardia asteroides = Nocardia asteroides ATCC 3308; planktonic; 18 hours
# Protocol: as §1
# (§2) A microbroth dilution method was used with twofold serial dilutions in CAMHB (according to EMEA guidelines) was used for screening of peptide activity, with concentrations ranging from 0.3 μg/mIto 200 μg/ml.
# S. aureus = assay type: cell-based, Staphylococcus aureus
# B. cereus = conditions: planktonic, 18 hours
# Protocol: as §1, §2
# [4] = test system: Micrococcus luteus ATCC 9341; assay: MIC, microbroth dilution; conditions: planktonic, 18 hours
# Protocol: as §1
# Ps. aeruginosa ATCC27853 = assay: MIC, microbroth dilution; conditions: planktonic, 18 hours
# Protocol: as §1
# S. epidermidis = conditions: planktonic, 18 hours
# Protocol: as §1, §2
# [5] = test system: Human embryonic kidney (HEK293T) cells; conditions: 50 μg/ml (C30: 50 μg/ml or beyond)
# bacterial cells = assay: Membrane potential (BacLight kit, DiOC2 red/green fluorescence); assay type: cell-based; conditions: 25 μg/ml; after 5 minutes
# human erythrocytes = assay type: cell-based
# Source text: The detergent Tween was used as a positive control, causing 100% lysis of RBCs.
# [6] = Preliminary in vivo toxicity in mice; conditions: Swiss mice
# Protocol: Further, three groups of 6-weeks old female Swiss mice were injected with increasing C30 doses over a period of 1 week. C30 was dissolved in physiological water and 1 injection per day was given. In the first 3 days injections in the tail vein were given (150 μl per injection) and during the remaining 2 days IP injections (300 μl per injection). The primary dose started from 3 mg/kg and each day the dose was increased gradually. The control group received the same volume of saline. The highest dose analyzed for IV injections was 50 mg/kg and for the IP injections 100 mg/kg. […] Organs of treated and control mice were subjected to further histological analysis. After all 5 injections were given, blood was taken by retro-orbital puncture and analyzed.
# S. capitis = assay: MIC, microbroth dilution; conditions: planktonic, 18 hours
# Protocol: as §1
# E. faecalis = E. faecalis ATCC 19433; planktonic; 18 hours
# Protocol: as §1, §2
# [7] = Preliminary in vivo toxicity in rats; conditions: 1.5 mg/kg and 3 mg/kg, single injection into a tail vein, observed over several days
# Protocol: In order to assess the toxicity of the antibacterial peptide interferors in vivo, eight germ-free fisher male and female rats, weighing approximately ±350 grams were injected with peptide interferor C30 in buffer A: histidine-acetate(pH 6.5) and buffer B phosphate buffer (pH 6.5). Two rats were injected with a concentration of 1.5 mg/kg and two with a concentration of 3 mg/kg. These were single non repeatable injections into a tail vein.
# Candida albicans SC5314 = assay: C. albicans adhesion on polyurethane catheters (CFU counting); assay type: cell-based; conditions: 50 μM; adhesion 90 min at 37° C.; control 3.06 ±0.39
# Protocol: In vitro C. albicans biofilm was studied on three different types of biomaterials, namely flat bottom 96-well polystyrene plate (Greiner Bio-One, Germany), silicone (CS Hyde, USA) and polyurethane triple lumen intravenous catheters (2.4mm diameter) (Arrow International Reading, USA). Prior the biofilm set up, silicone was cut into small square pieces (1 cm×1 cm) and polyurethane into 1 cm pieces. Silicone or polyurethane devices were incubated in 99% FBS (F7524, Sigma) overnight at 37° C. Cells were washed and resuspended in 1 x phosphate buffered saline (PBS), pH 7.4. Candida suspension of 1×10^7 cells/ml or 5.10^4 cells/ml was prepared in RPMI1640-MOPS medium, Ssuccinate, pH 6.5 or in YNB medium, 4% D-glucose. In total, 1 ml of the cell suspension was added to the silicone discs or polyurethane catheters placed in 24 well plate and 100 μl of cell suspension was inoculated into 96-well polystyrene plate. The attachment of the cells to a substrate was achieved by incubation at 37° C., for 90 min under static conditions (period of adhesion). […] After that, the biofilms were washed twice with 1×PBS and quantified.
# The amount of fungal biofilm biomass formed inside the catheter lumen of in vitro and in vivo explanted catheters was determined by colony forming units (CFU). […] CFUs were counted after two days at 37° C.
sequence,measurement,setting,value
RILLGLIRRGSRILLGLIRR [C30],MIC,[1],Listeria monocytogenes ATCC 11994: 1.5 μg/ml
same,time needed to kill Staphylococci,[2],5 to 10 min
same,decrease of viable counts,"[2]; Staphylococcus epidermidis and Staphylococcus aureus, 5 min, 1 ×MIC",100%
same,viability of mammalian cells,[3],viability of mammalian cells is not significantly affected
same,activity against the genus Corynebacterium,Corynebacterium,active against the genus Corynebacterium
same,MIC,Nocardia asteroides,Nocardia asteroides ATCC 3308: 1.5 μg/ml
same,onset of resistance compared with common antibiotics,"S. aureus; S. aureus ATCC, broth microdilution, 4 duplicates",much slower onset of resistance than Ampicillin
same,fold elevation of the MIC,"S. aureus; S. aureus clinical strain MRSA 204, passaged at half the MIC over 15 days",2 fold
same,MIC,B. cereus; Bacillus cereus 1,Bacillus cereus 1: 6 μg/ml
same,MIC,B. cereus; Bacillus cereus 2,Bacillus cereus 2: 6 μg/ml
same,MIC,[4],Micrococcus luteus ATCC 9341: 3 μg/ml
same,MIC,Ps. aeruginosa ATCC27853,Ps. aeruginosa ATCC27853: >100 μg/ml
same,MIC,S. epidermidis; S101,S101: 1.5 μg/ml
same,MIC,S. epidermidis; S103,S103: 1.5 μg/ml
same,MIC,S. epidermidis; S104,S104: 1.5 μg/ml
same,MIC,S. epidermidis; S109,S109: 3 μg/ml
same,MIC,S. epidermidis; S. epidermidis ATCC 13228,S. epidermidis ATCC 13228: 1.5 μg/ml
same,maximal increase of the MIC,"MRSA strain 326; 31 days, concentration in medium adjusted to MIC of previous day",≤ 4 fold
same,MIC on the last day of the experiment,MRSA strain 326; day 31,"12,5 μg/ml"
same,LDH release,[5],higher than 50%
same,membrane potential (MP) change,bacterial cells,full depolarization of the MP
same,HD50 (concentration at which 50% of red blood cells are lysed),human erythrocytes,25 to 50 µg/mL
same,side effects,"[6]; IP injection, highest dose of 100 mg/kg",developed a subcutaneous lesion bump
same,mortality and side effects,"[6]; IV injections, increasing doses from 3 mg/kg, highest dose 50 mg/kg",no signs of mortality nor any other visible side effects
same,blood analysis,"[6]; after all 5 injections, retro-orbital puncture",No abnormalities were found in the blood
same,MIC,S. capitis,S. capitis: 1.5 μg/ml
same,MIC,E. faecalis,E. faecalis ATCC 19433: 6 μg/ml
same,mortality and side effects,[7],no mortality nor any other side effects were apparently visible
RKLLFNLGSRNGIVIVATTR [F9],attachment to polyurethane devices,Candida albicans SC5314,2.18 ±0.12 logio CFU/catheter fragment

# From US20220033448A1, “METHODS FOR AGGREGATION OF PROTEINS” (priority 2011, published 2022)
